{"source": "patent US20050096308A1", "about": "“Antibacterial agents” (priority 2003, published 2005)", "assay_in_all_cases": "Antibacterial assay (Test A), standard microtitration, MIC", "format_in_all_cases": "cell-based", "key": {"[1]": {"system": "E. coli MC4100", "details": "Escherichia coli; Gram Negative Bacteria; strain MC4100; read-out: Minimum Inhibitory Concentrations E. coli MC4100", "description": "(§1) Test A—Antibacterial Assays\n(§2) The compounds of the present invention were tested against an assortment of Gram-negative and Gram-positive organisms using standard microtitration techniques (Cohen et. al., Antimicrob., 1985;28:766; Heifetz, et. al., Antimicrob., 1974;6:124)."}, "[2]": {"system": "H. influenzae HI-3542", "details": "Haemophilus influenzae, HI3542; Gram Negative Bacteria; strain HI-3542; read-out: Minimum Inhibitory Concentrations H. influenzae HI-3542", "description": "as §1, §2"}, "[3]": {"system": "M. catarrhalis BC-3531", "details": "Moraxella catarrhalis, BC3531; Gram Negative Bacteria; strain BC-3531; read-out: Minimum Inhibitory Concentrations M. catarrhalis BC-3531", "description": "as §1, §2"}, "[4]": {"system": "E. faecalis MGH-2", "details": "Enterococcus faecalis, MGH2; Gram Positive Bacteria; strain MGH-2; read-out: Minimum Inhibitory Concentrations E. faecalis MGH-2", "description": "as §1, §2"}, "[5]": {"system": "S pyogenes C203", "details": "Gram Positive Bacteria; strain C203; read-out: Minimum Inhibitory Concentrations S pyogenes C203", "description": "as §1, §2"}, "[6]": {"system": "S. aureus UC-76", "details": "Staphylococcus aureus, UC76; Gram Positive Bacteria; strain UC-76; read-out: Minimum Inhibitory Concentrations S. aureus UC-76", "description": "as §1, §2"}}, "data": [{"smiles": "Nc1nc(-n2c(=O)n(N)c(=O)c3cc(F)c(N4CC(O)C4)c(Cl)c32)c(F)cc1F", "note": "[drawing 117]", "values": [{"measurement": "MIC", "setting": "[1]", "result": 64, "unit": "µg/mL"}, {"measurement": "MIC", "setting": "[2]", "result": 1, "unit": "µg/mL"}, {"measurement": "MIC", "setting": "[3]", "result": 4, "unit": "µg/mL"}]}, {"smiles": "Cc1c(N2CC(O)C2)c(F)cc2c(=O)n(N)c(=O)n(C3CC3)c12", "note": "[drawing 124]", "values": [{"measurement": "MIC", "setting": "[4]", "result": 32, "unit": "µg/mL"}, {"measurement": "MIC", "setting": "[5]", "result": 16, "unit": "µg/mL"}, {"measurement": "MIC", "setting": "[6]", "result": 1, "unit": "µg/mL"}]}, {"smiles": "Nn1c(=O)c2cc(F)c(N3CC(O)(C4CC4)C3)c(Cl)c2n(C2CC2)c1=O", "note": "[drawing 126]", "values": [{"measurement": "MIC", "setting": "[4]", "result": 0.5, "unit": "µg/mL"}, {"measurement": "MIC", "setting": "[5]", "result": 0.5, "unit": "µg/mL"}, {"measurement": "MIC", "setting": "[6]", "result": 0.03, "unit": "µg/mL"}]}, {"smiles": "Cc1c(N2CC(O)C2)c(F)cc2c(=O)n(N)c(=O)n(C3CC3)c12", "note": "[drawing 118]", "values": [{"measurement": "MIC", "setting": "[1]", "result": 1, "unit": "µg/mL"}, {"measurement": "MIC", "setting": "[2]", "result": 32, "unit": "µg/mL"}, {"measurement": "MIC", "setting": "[3]", "result": 1, "unit": "µg/mL"}]}, {"smiles": "CC(C)C1(O)CN(c2c(F)cc3c(=O)n(N)c(=O)n(C4CC4)c3c2Cl)C1", "note": "[drawing 122]", "values": [{"measurement": "MIC", "setting": "[1]", "result": 64, "unit": "µg/mL"}, {"measurement": "MIC", "setting": "[2]", "result": 32, "unit": "µg/mL"}, {"measurement": "MIC", "setting": "[3]", "result": 32, "unit": "µg/mL"}]}, {"smiles": "Nn1c(=O)c2cc(F)c(N3CC(O)(c4ccc(F)cc4)C3)c(Cl)c2n(C2CC2)c1=O", "note": "[drawing 127]", "values": [{"measurement": "MIC", "setting": "[4]", "result": 16, "unit": "µg/mL"}, {"measurement": "MIC", "setting": "[5]", "result": 8, "unit": "µg/mL"}, {"measurement": "MIC", "setting": "[6]", "result": 4, "unit": "µg/mL"}]}, {"smiles": "Nn1c(=O)c2cc(F)c(N3CC(O)(c4ccc(F)cc4)C3)c(Cl)c2n(C2CC2)c1=O", "note": "[drawing 121]", "values": [{"measurement": "MIC", "setting": "[1]", "result": 64, "unit": "µg/mL"}, {"measurement": "MIC", "setting": "[2]", "result": 32, "unit": "µg/mL"}, {"measurement": "MIC", "setting": "[3]", "result": 16, "unit": "µg/mL"}]}, {"smiles": "Nn1c(=O)c2cc(F)c(N3CC(O)(C4CC4)C3)c(Cl)c2n(C2CC2)c1=O", "note": "[drawing 120]", "values": [{"measurement": "MIC", "setting": "[1]", "result": 0.002, "unit": "µg/mL"}, {"measurement": "MIC", "setting": "[2]", "result": 0.03, "unit": "µg/mL"}, {"measurement": "MIC", "setting": "[3]", "result": 0.03, "unit": "µg/mL"}]}, {"smiles": "CC(C)C1(O)CN(c2c(F)cc3c(=O)n(N)c(=O)n(C4CC4)c3c2Cl)C1", "note": "[drawing 128]", "values": [{"measurement": "MIC", "setting": "[4]", "result": 32, "unit": "µg/mL"}, {"measurement": "MIC", "setting": "[5]", "result": 64, "unit": "µg/mL"}, {"measurement": "MIC", "setting": "[6]", "result": 16, "unit": "µg/mL"}]}, {"smiles": "Nc1nc(-n2c(=O)n(N)c(=O)c3cc(F)c(N4CC(O)C4)c(Cl)c32)c(F)cc1F", "note": "[drawing 123]", "values": [{"measurement": "MIC", "setting": "[4]", "result": 16, "unit": "µg/mL"}, {"measurement": "MIC", "setting": "[5]", "result": 16, "unit": "µg/mL"}, {"measurement": "MIC", "setting": "[6]", "result": 4, "unit": "µg/mL"}]}, {"smiles": "Cc1c(N2CC(CCO)C2)c(F)cc2c(=O)n(N)c(=O)n(C3CC3)c12", "note": "[drawing 119]", "values": [{"measurement": "MIC", "setting": "[1]", "result": 32, "unit": "µg/mL"}, {"measurement": "MIC", "setting": "[2]", "result": 4, "unit": "µg/mL"}, {"measurement": "MIC", "setting": "[3]", "result": 4, "unit": "µg/mL"}]}, {"smiles": "Cc1c(N2CC(CCO)C2)c(F)cc2c(=O)n(N)c(=O)n(C3CC3)c12", "note": "[drawing 125]", "values": [{"measurement": "MIC", "setting": "[4]", "result": 16, "unit": "µg/mL"}, {"measurement": "MIC", "setting": "[5]", "result": 16, "unit": "µg/mL"}, {"measurement": "MIC", "setting": "[6]", "result": 4, "unit": "µg/mL"}]}]}
